{
  "source": "patent US11224582B2",
  "about": "“Amino acid formulations for pancreatic viability” (Almeda Labs LLC, priority 2017, dated 2022)",
  "key": {"rat islets [1]": {"system": "rat islets", "experiment": "Viability assay of rat islets (Yo-Pro / propidium iodide staining)", "type": "cell-based", "settings": "for Apoptotic Cells (%) / Live Cells (%) / Necrotic Cells (%): 1 g/L in RPMI, 11.6 mM glucose", "protocol": "During the long-term (11 day) exposure, the islets were administered Amino Acid Formulation #1 or cysteine (at the same concentration) or culture media with no added amino acids.\nIsolated rat islets were cultured in 100 cm^2 cell culture plates (untreated) in 20 ml of Roswell Park Memorial Institute (RPMI) media. […] Islets were removed from the dish and placed in 50 ml tubes. Islets were allowed time to settle to the bottom of the tube. The excess media was removed, and the islets were moved to microcentrifuge tubes, and DPBS solution was added to each tube. Cells were washed and fresh DPBS added.\nIslets had media changed every 2 days with continuous exposure to Amino Acid Formulation #1, Cysteine alone, or media alone. Amino Acid Formulation #1 was prepared in the lab using amino acid capsules: […]\nThe working solutions contained 1 g/1 L concentration of Amino Acid Formulation #1 or cysteine alone prepared in RPMI.\n25-50 islets were removed from the dishes and placed in 50 ml tubes. Islets were allowed time to settle to the bottom of the tube. The excess media was removed, and the islets were moved to microcentrifuge tubes, and DPBS solution was added to each tube. Cells were washed and fresh DPBS added. Propidium iodide and yo-pro were added to the tubes at a ratio of 1 μl reagent to 1 ml cells in DPBS.\nIndividual wells of 96-well plates were manually loaded with 10-15 islets each and checked visually under a microscope for consistency between wells. 30 minutes later, the plates were loaded into the BioTeck plate reader with readings for Yo-Pro and Propidium iodide with additional verification of islet tissue using dithizone staining.\nResults were saved as images for later cellular analysis.\nAll islets identified in each condition were scored for the percent area of apoptotic and necrotic cells. The remaining percentage was calculated as live cells."}, "rat islets [2]": {"system": "rat islets", "experiment": "Islet survival (number of islets over time in culture)", "type": "cell-based", "description": "The objective of the experiment was to test the effect of long-term exposure of rat islets to Amino Acid Formulation #1 and compare those results to the currently-marketed amino acid, cysteine. A group without added amino acids was used as a control group. The comparison was based on the number of dead cells within islets over time, a count of the number of islets surviving over time, and the functional test of cellular metabolism after long-term exposure.\nRat islets were isolated from the pancreata of female animals under approved protocol and SOPs. […] The imaging capabilities of the Cytation plate reader was utilized for survival values.\nAll groups began with the same number of total islets per group."}, "rat islets [3]": {"system": "rat islets", "experiment": "Dithizone staining / light microscopy of rat islets", "type": "cell-based", "settings": "day 1", "description": "Islets were exposed to a single dose of Amino Acid Formulation #1 or cysteine for 11 days. FIG. 1 illustrates images of islets from each condition on day 1, stained with dithizone, which identifies islet cells via dark red color.\nIn the control media, the same was found."}, "[4]": {"experiment": "Dissolution of test articles in RPMI working solutions", "type": "physicochemical", "settings": "1 g/1 L in RPMI, after 24 hours at 37° C.", "protocol": "The working solutions contained 1 g/1 L concentration of Amino Acid Formulation #1 or cysteine alone prepared in RPMI. […] The working medium was kept at 37° C. in incubator with islets."}, "[5]": {"system": "human beta-cell line (INS-1 832/13)", "experiment": "Viability assay (PrestoBlue) of beta-cell line with single amino acids, double crosses and blends, Example 4", "settings": "for effect of single amino acid on cell viability: 5-hour exposure in PBS; for effect on cell viability in single / double crosses: each amino acid at 1 mg/mL; for effect on cell viability at the highest doses / higher concentrations: single amino acids", "method": "The human beta-cell line (INS-1 832/13) was expanded and maintained in RPMI-1640 growth media during expansion. Cells were grown and sustained in T75 cell culture flasks in an incubator at 37° C. and 5% CO2. Cells were passaged every 4th day via trypsinization. All cell media changes and passage work was done under a biosafety hood to ensure sterility of the cultures. Readings were obtained from the EnSpire Multimode Plate Reader (Perkin Elmer) with excitation of 560 nm and emission of 590 nm. To avoid plate edge effects the outer wells of each plate were used as blanks.\nThe INS-1 832/13 cell line, a derivation of the INS-1 cell line, was cultured in a growth medium consisting of RPMI-1640, along with 1 M HEPES buffer solution, 50×INS supplement (glutamine, Na-pyruvate, and B-mercaptoethanol), Antibiotic-Antimycotic (Gibco by LifeTechnologies), and Fetal Bovine Serum (HyClone). Cells were grown and sustained in a T75 cell culture flask. The cells were placed in a humidified incubator at 37° C. and 5% CO2. Due to the rapid growth of these cells, media was changed on every second day and passaged on every fourth day via trypsinization. When cells were confluent, they were exposed to amino acids as described below.\nPilot studies were undertaken with 6 single amino acids to determine the optimal conditions for cell testing, and the optimal time for exposure to the amino acids. […] Thus, a second trial was undertaken removing the media and placing cells in phosphate buffered saline at the time of the amino acid addition. […] Thus, the optimal conditions were determined to be a 5-hour exposure to the amino acids in PBS.\nFor the full study, cells plated in 384-well plates were exposed to individual amino acids at 10 full-log doses for 4 hours at 37° C. and 5% CO2. PrestoBlue (10%) was added to each well using the Hamilton Star Automated Fluid Handling System, and 1 hour later, for a total of 5 hours of exposure to the amino acids.\nThe plates were loaded into the EnSpire plate reader with excitation of 560 nm and emission of 590 nm excitation wavelengths.\nAmino acids were added to a minimal buffer in full log concentrations starting at 1E−08 through 10 mg/mL. […] In the graph, the data have been normalized to cell viability in minimal buffer with no amino acids (100%).\nThus, a concentration of 1 mg/mL of a single amino acid is actually a 5 mg/mL of the full blend, because there are 5 different amino acids in each blend mixed in equal amounts."}},
  "note": "Entries after “also recorded” stand apart in the source; their conditions may differ.",
  "data": [
    {"compound": "N[C@@H](CS)C(=O)O", "note": "[Cysteine, L-Cysteine]", "values": [
      {"measurement": "route of cell death (apoptosis / necrosis)", "setting": "rat islets [1]", "value": "both apoptosis and necrosis"},
      {"measurement": "cell death (Yo-Pro and Propidium Iodide staining)", "setting": "rat islets [1]; 24 hours exposure, compared with control and Formulation #1", "value": "greater than the other 2"},
      {"measurement": "Apoptotic Cells (%)", "setting": "rat islets [1]; Day 1", "value": "18.2 + 21.3%"},
      {"measurement": "Live Cells (%)", "setting": "rat islets [1]; Day 1", "value": "58.4 ± 33.4", "unit": "%"},
      {"measurement": "Necrotic Cells (%)", "setting": "rat islets [1]; Day 1", "value": "23.4 ± 20.4", "unit": "%"},
      {"measurement": "Apoptotic Cells (%)", "setting": "rat islets [1]; Day 4", "value": "47.1 ± 35.9", "unit": "%"},
      {"measurement": "Live Cells (%)", "setting": "rat islets [1]; Day 4", "value": "42.0 ± 39.8", "unit": "%"},
      {"measurement": "Necrotic Cells (%)", "setting": "rat islets [1]; Day 4", "value": "10.9 + 13.4%"},
      {"measurement": "viability compared with the other groups", "setting": "rat islets [1]; days 1, 4 and 8", "value": "significantly lower viability than the other two groups"},
      {"measurement": "islets found in the group", "setting": "rat islets [2]; day 8", "value": "No islets could be identified; also recorded: no live islets could be found"},
      {"measurement": "islet survival time in culture", "setting": "rat islets [2]; no islets survived past this time", "value": "≤ 6", "unit": "days"},
      {"measurement": "number of islets as % of the Amino Acid Formulation #1 group", "setting": "rat islets [2]; within 24 hours of exposure", "value": 78, "unit": "%"},
      {"measurement": "islets with core cell death", "setting": "rat islets [3]", "value": "approximately 30%"},
      {"measurement": "undissolved crystals in working solution", "setting": "[4]", "value": "still had microscopic crystals that had not gone completely into solution"},
      {"measurement": "effect of single amino acid on cell viability", "setting": "[5]; 0.01 mg/mL and higher", "value": "positive impact on cell viability"},
      {"measurement": "effect on cell viability in single / double crosses", "setting": "[5]", "value": "most positive effect on cell health"},
      {"measurement": "effect on cell viability at the highest doses / higher concentrations", "setting": "[5]", "value": "improve viability at the higher concentrations tested"}
    ]},
    {"compound": "N=C(N)NCCC[C@H](N)C(=O)O", "note": "[arginine, L-Arginine]", "values": [
      {"measurement": "effect on cell viability in single / double crosses", "setting": "[5]", "value": "decrease in cell viability when added to any other amino acid"},
      {"measurement": "effect on cell viability at the highest doses / higher concentrations", "setting": "[5]", "value": "negative effects on cell viability at the highest doses"},
      {"measurement": "effect of single amino acid on cell viability", "setting": "[5]; starting at 1 mg/mL", "value": "dramatic reductions in the viability"}
    ]},
    {"compound": "NC(=O)C[C@H](N)C(=O)O", "note": "[asparagine, L-Asparagine]", "values": [
      {"measurement": "cells left in the dish that were alive", "setting": "[5]; double cross: another 1 mg/mL of asparagine added to 1 mg/mL asparagine", "value": 18, "unit": "%"},
      {"measurement": "effect on cell viability in single / double crosses", "setting": "[5]", "value": "dramatic reduction in beta cell viability"},
      {"measurement": "effect on cell viability at the highest doses / higher concentrations", "setting": "[5]", "value": "negative effects on cell viability at the highest doses"},
      {"measurement": "effect of single amino acid on cell viability", "setting": "[5]; starting at 1 mg/mL", "value": "dramatic reductions in the viability"}
    ]},
    {"compound": "N[C@@H](Cc1c[nH]cn1)C(=O)O", "note": "[histidine, L-Histidine]", "values": [
      {"measurement": "effect on cell viability in single / double crosses", "setting": "[5]", "value": "very little effect on cell viability except when paired with asparagine or arginine"},
      {"measurement": "cells killed (fraction, words)", "setting": "[5]; single amino acid, high doses (from 1 mg/mL)", "value": "approximately half"},
      {"measurement": "effect of single amino acid on cell viability", "setting": "[5]; starting at 1 mg/mL", "value": "dramatic reductions in the viability"}
    ]},
    {"compound": "N[C@@H](CO)C(=O)O", "note": "[serine, L-Serine]", "values": [
      {"measurement": "effect of single amino acid on cell viability", "setting": "[5]; 10 mg/mL", "value": "slightly positive increases in viability"}
    ]},
    {"compound": "C[C@@H](O)[C@H](N)C(=O)O", "note": "[threonine, L-Threonine]", "values": [
      {"measurement": "effect of single amino acid on cell viability", "setting": "[5]; 10 mg/mL", "value": "slightly positive increases in viability"}
    ]}
  ]
}
